Structures can show the parent of a compound that is named as a salt. Where two headings read alike, the source gives them in different places.
Assays:
[1] = Test 1: blood pressure depression effect, systolic pressure, indirect tail-cuff method, oral; assay type: in vivo, Male, spontaneously hypertension-developing rats; settings: for Systolic blood pressure (mmHg) After 1 hr / Systolic blood pressure (mmHg) After 4 hrs / Systolic blood pressure (mmHg) After 7 hrs: 25 mg/kg oral, average value; for Systolic blood pressure (mmHg) After 1 hr: 1 hr after administration; for Systolic blood pressure (mmHg) After 4 hrs: 4 hrs after administration; for Systolic blood pressure (mmHg) After 7 hrs: 7 hrs after administration
Experimental: Blood pressure depression effect
(§1) Male, spontaneously hypertension-developing rats of ages of 10 to 11 weeks (in groups of 3 to 5 animals) were used in the test. For blood pressure determination, systolic pressure was measured without anesthesia by an indirect tail-cuff method using a sphygmomanometer (PE-300, Narco Bio-System).
The compound to be tested was orally administered (at a dose of 25 mg/kg in terms of the active compound) as a 10% HCO-60 (polyoxyethylene hardened castor oil) suspension. Blood pressure was determined 1, 4 and 7 hours after the administration.
Further, the blood pressure depression effect of the fumarate of the compound obtained in Example 28 described later was examined in the same manner as described above.

[2] = Test 2: blood pressure depression up to 24 hours and duration until 50% recovery, oral; assay type: in vivo, Male, spontaneously hypertension-developing rats; settings: for response vs control in vivo at 25 mg/kg: Rattus norvegicus; for Duration 50% recovery: duration until pressure recovered to 50% from the maximum depression value
Experimental: as §1

[3] = 1h after oral administration, percent based on that before administration (100), read-out: Depression value (%) of blood pressure, 1h
[4] = 2h after oral administration, percent based on that before administration (100), read-out: Depression value (%) of blood pressure, 2h
[5] = 4h after oral administration, percent based on that before administration (100), read-out: Depression value (%) of blood pressure, 4h
[6] = 7h after oral administration, percent based on that before administration (100), read-out: Depression value (%) of blood pressure, 7h
[7] = 24h after oral administration, percent based on that before administration (100), read-out: Depression value (%) of blood pressure, 24h
[8] = maximum lowering, percent based on that before administration (100), read-out: Depression value (%) of blood pressure, Max

Row | SMILES | Systolic blood pressure (mmHg) After 1 hr [1] [mmHg] | Systolic blood pressure (mmHg) After 4 hrs [1] [mmHg] | Systolic blood pressure (mmHg) After 7 hrs [1] [mmHg] | response vs control in vivo at 25 mg/kg [2, 3] [%] | response vs control in vivo at 25 mg/kg [2, 4] [%] | response vs control in vivo at 25 mg/kg [2, 5] [%] | response vs control in vivo at 25 mg/kg [2, 6] [%] | response vs control in vivo at 25 mg/kg [2, 7] [%] | response vs control in vivo at 25 mg/kg [2, 8] [%] | Duration 50% recovery [2] [h] | time required for 50% recovery from maximum depression value (%) of blood pressure ([1]; same manner as Test 1, oral) [h] | maximum depression value (%) of blood pressure from the value (100%) before administration ([1]; same manner as Test 1, oral, before administration = 100%) [%] | response vs control in vivo at 25 mg/kg ([2]; po, 1 h, read-out: Depression value (%) of blood pressure, 1h) [%] | response vs control in vivo at 25 mg/kg ([2]; po, 2 h, read-out: Depression value (%) of blood pressure, 2h) [%] | response vs control in vivo at 25 mg/kg ([2]; po, 4 h, read-out: Depression value (%) of blood pressure, 4h) [%] | response vs control in vivo at 25 mg/kg ([2]; po, 7 h, read-out: Depression value (%) of blood pressure, 7h) [%] | response vs control in vivo at 25 mg/kg ([2]; po, 24 h, read-out: Depression value (%) of blood pressure, 24h) [%] | response vs control in vivo at 25 mg/kg ([2]; read-out: Depression value (%) of blood pressure, Max) [%]
1 | COC(=O)C1=C(C)NC(C)=C(C(=O)OCCN(C)Cc2ccccc2)C1c1cccc(C#N)n1 (stereo not drawn) [Example 1, 2,6-Dimethyl-4-(6-cyano-2-pyridyl)-1,4-dihydropyridine-3,5-dicarboxylicacid 3-β-(N-benzyl-N-methylamino)ethyl ester 5-methyl ester] | 115 | 137 | 148 | 69 | 74 | 84 | 88 | 98 | 69 | 4.4 |  |  |  |  |  |  |  | 
2 | COC(=O)C1=C(C)NC(C)=C(C(=O)OCCN(C)Cc2ccccc2)C1c1cccc(Br)n1 (stereo not drawn) [Example 3, 2,6-Dimethyl-4-(6-bromo-2-pyridyl)-1,4-dihydropyridine-3,5-dicarboxylicacid 3-β-(N-benzyl-methylamino)ethyl ester 5-methyl ester] | 126 | 143 | 161 | 63 | 72 | 86 | 83 | 99 | 63 | 3.5 |  |  |  |  |  |  |  | 
3 | COC(=O)C1=C(C)NC(C)=C(C(=O)OCCN(C)Cc2ccccc2)C1c1cc([N+](=O)[O-])ccn1 (stereo not drawn) [Example 5, 2,6-Dimethyl-4-(4-nitro-2-pyridyl)-1,4-dihydropyridine-3,5-dicarboxylic acid 3-β-(N-benzyl-N-methylamino)ethyl ester 5-methyl ester] | 156 | 135 | 140 | 67 | 82 | 93 | 90 | 104 | 67 | 2.3 |  |  |  |  |  |  |  | 
4 | COC(=O)C1=C(C)NC(C)=C(C(=O)OCCN(C)Cc2ccccc2)C1c1ccnc(C(F)(F)F)c1 (stereo not drawn) [Example 6, 2,6-Dimethyl-4-(2-trifluoromethyl-4-pyridyl)-1,4-dihydropyridine-3,5-dicarboxylic acid 3-β-(N-benzyl-N-methylamino)ethyl ester 5-methyl ester] | 139 | 145 | 145 |  |  |  |  |  |  |  |  |  |  |  |  |  |  | 
5 | COC(=O)C1=C(C)NC(C)=C(C(=O)OCCN(C)Cc2ccccc2)C1c1cccnc1C(F)(F)F (stereo not drawn) [Example 28 fumarate] |  |  |  |  |  |  |  |  |  |  | 16.2 | 67 |  |  |  |  |  | 
6 | COC(=O)C1=C(C)NC(C)=C(C(=O)OC)C1c1ccccc1[N+](=O)[O-] [Nif, 2,6-dimethyl-4-(2-nitrophenyl)-1,4-dihydropyridine-3,5-dicarboxylic acid dimethyl ester, reference compound] |  |  |  |  |  |  |  |  |  | 19.4 |  |  | 72 | 73 | 77 | 70 | 90 | 70

From US4849429A, “Certain 1,4-dihydro-2,6-dilower-alkyl-4-(mono-substituted pyridyl) useful for treating coronary artery or cerebral artery disease” (The Green Cross Corporation, priority 1985, dated 1989)
